Laboratory results published in publication PMC11617668, “Developing Allosteric Inhibitors of SARS‐CoV‐2 RNA‐Dependent RNA Polymerase” (Chemmedchem, 2024).
Values after ≈ are worked out from the molar mass of the structure shown. Where two headings read alike, the source gives them in different places.

Key:
[1] = test system: SARS‐CoV‐2; conditions: Severe acute respiratory syndrome coronavirus 2, Calu-3, 72 h
Experimental: (§1) Briefly, two‐fold fold serial dilutions of compounds were added in triplicate in a 384‐well plate with 15,000 Calu‐3 cells in DMEM medium with 2 % FBS, 100 U of penicillin/ml and 100 μg of streptomycin/ml (all Merck). After 1 h incubation SARS‐CoV‐2 was added at multiplicity of infection 0.01. Following three days incubation at 37 °C in 5 % CO2 the cell viability was determined by addition of XTT solution (Sigma‐Aldrich) for 4 h and the absorbance was measured using EnVision plate reader (Perkin Elmer). Drug concentrations required to reduce viral cytopathic effect by 50 % (EC50) were calculated using nonlinear regression from plots of percentage cell viability versus log10 drug concentration using GraphPad Prism v.9.0.0 (GraphPad Software). Cytotoxicity was evaluated by incubating the same two‐fold serial dilutions of each compound with Calu‐3 cells as above but without virus. Following three days of incubation at 37 °C in 5 % CO2, the cell viability was determined by the addition of XTT solution as above. The compound concentrations resulting in a 50 % reduction of absorbance (CC50) were calculated from plots of the percentage of absorbance versus log10 drug concentration as above.

[2] = target: SARS‐CoV‐2 RdRp complex (nsp12, nsp7, nsp8) (Severe acute respiratory syndrome coronavirus 2, UniProt P0DTD1); assay: Fluorescence-based RdRp polymerase assay (SYBR Green I RNA extension); type: biochemical
[3] = Kinetic solubility test in enzymatic assay medium; type: physicochemical; conditions: aqueous HEPES buffer with 5 % DMSO, pH 8, aqueous with cosolvent or surfactant or cyclodextrin, kinetic from dmso stock
Experimental: Kinetic solubility tests were performed in the medium used for the enzymatic assay–aqueous solution of HEPES buffer with 5 % DMSO. […] This poor aqueous solubility represents a big hurdle in the development of potential antivirals and the improvement of solubility will be considered in further structural optimization efforts of this class of compounds.

[4] = in vitro; conditions: human
Experimental: as §1

[5] = Solubility in water (stated in words); type: physicochemical
[6] = Cytotoxicity in Calu-3 cells without virus (XTT); conditions: human, CC50, Calu‐3 cells, no virus, three days
Experimental: as §1

[7] = test system: Calu‐3 cells; assay: Cytotoxicity in Calu-3 cells without virus (XTT); conditions: Calu‐3 cells, no virus, three days
Experimental: as §1

[8] = test system: COVID‐19; conditions: cited from earlier work
[9] = test system: SARS‐CoV‐2; conditions: cited from earlier work
[10] = 50 min, read-out: residual activity (RA) of the SARS‐CoV‐2 RdRp complex
[11] = read-out: residual activity (RA) of SARS‐CoV‐2 RdRp

SMILES	EC50 [1]	remaining activity at 10 µM [2, 10]	solubility kinetic [3]	CC50 at 3 days [4]	other results
O=C(Nc1cc(Cl)cc(Cl)c1)Nc1nc2ccc(C(F)(F)F)cc2[nH]1 [Compound 60, 1‐(3,5‐Dichlorophenyl)‐3‐(6‐(Trifluoromethyl)‐1H‐Benzo[d]imidazol‐2‐yl)urea]	> 0.65 µM	28%	< 2.1 µM	0.65 µM	–
O=C(Nc1cc(Cl)cc(Cl)c1)Nc1cccc(C(F)(F)F)c1 [Compound 47, 1‐(3,5‐Dichlorophenyl)‐3‐(3‐(Trifluoromethyl)phenyl)urea]	> 0.49 µM	45%	< 2 µM	0.49 µM	–
CC(C)OC(=O)c1cc(NC(=O)Nc2cccc([N+](=O)[O-])c2)cc(C(=O)OC(C)C)c1 [Compound 1]	> 23 µM	57%	–	23 µM	solubility in water [5]: poorly soluble in water
FC(F)(F)c1cccc(Nc2nc3cc(Cl)c(Cl)cc3[nH]2)c1 [Compound 56, 5,6‐Dichloro‐N‐(3‐(Trifluoromethyl)phenyl)‐1H‐Benzo[d]imidazol‐2‐Amine]	> 43 µM	60%	7 ± 0.1 µM (≈ 2.42 µg/mL)	43 µM	–
O=C(Nc1cccc(C(F)(F)F)c1)Nc1nc2cc(Cl)c(Cl)cc2[nH]1 [Compound 59, 1‐(5,6‐Dichloro‐1H‐Benzo[d]imidazol‐2‐yl)‐3‐(3‐(Trifluoromethyl)phenyl)urea]	~10 µM	50%	2.53 ± 0.03 µM (≈ 0.985 µg/mL)	23 µM	–
CCC(CC)COC(=O)[C@H](C)N[P@](=O)(OC[C@H]1O[C@@](C#N)(c2ccc3c(N)ncnn23)[C@H](O)[C@@H]1O)Oc1ccccc1 [Remdesivir, remdesivir, reference compound]	0.11 µM	–	–	–	CC50 at 3 days [6]: > 3.2 µM; CC50 [7]: > 5 µM; remaining activity at 10 µM [2, 11]: 62%; remaining activity at 50 µM [2, 11]: 40%; remaining activity at 100 µM [2, 11]: 25%; mortality among hospitalized adults ([8]; Adaptive COVID Treatment Trial (ACTT), placebo 15.2 %): 11.4%; improvement compared with placebo ([8]; Hubei (China) study): no statistically significant improvement
CC(C)C(=O)OC[C@H]1O[C@@H](n2ccc(NO)nc2=O)[C@H](O)[C@@H]1O [Molnupiravir, molnupiravir]	–	–	–	–	post‐hospitalization mortality rate ([8]; 30‐day‐long study, patients with moderate COVID‐19, placebo 9.7 %): 6.8%
FC(F)(F)c1ccc2nc(-c3nc4cc(Cl)c(Cl)cc4[nH]3)[nH]c2c1 [Compound 55, 5,6‐Dichloro‐6′‐(Trifluoromethyl)‐1 H ,1′H‐2,2′‐Bibenzo[d]imidazole]	> 2.1 µM	42%	2.9 ± 0.6 µM (≈ 1.08 µg/mL)	2.1 µM	–
COc1cc(NC(=O)Nc2cccc(CNC(=O)O[C@H]3CCOC3)c2)ccc1-c1cnco1 [merimepodib, reference compound]	–	100%	–	–	viral replication ([9]; in combination with remdesivir): completely suppress viral replication
NC(=O)c1nc(F)c[nH]c1=O [favipiravir]	–	–	–	–	clinical recovery rate ([8]; open‐label randomized trial in China, COVID‐19 patients): did not significantly improve
O=C(Nc1cc(C(F)(F)F)cc(C(F)(F)F)c1)Nc1ccc(Br)cc1-c1nnn[nH]1 [Endovion, endovion, reference compound]	> 64 µM	40%	–	> 64 µM	activity in cell assays against the virus [9]: active; solubility in water [5]: poorly soluble in water
